In patent US8394355B2, “Use of UTP for the diagnosis of stenoses and other conditions of restricted blood flow” (P2 science Aps, priority 2009, dated 2013):
“And” between values parts separate entries of the source, which are not always exact repeats. Equal values may be shown once.

Tests used:
[1] = tested on: pulmonary and systemic circulation of healthy female pigs; experiment: Systemic (central intravenous) nucleotide infusion in pigs, hemodynamic response; format: in vivo; conditions: for increase in CO (cardiac output): FIG. 7b; for increase in HR from baseline: FIG. 7c; for decrease in SV (stroke volume): FIG. 7d; for MAP lowered by, from baseline: p<0.05, FIG. 7a; for decrease in PVR (pulmonary vascular resistance) from baseline: pig, in vivo
Procedure: In the present study, the hemodynamic response in the pulmonary and systemic circulation was tested, as well as the effect of central intravenous infusions of ATP, ADP, ADO, and UTP on the heart.
Infusion rates were aimed at exerting a pronounced systemic response in the lowering of arterial blood pressure, but avoiding a total circulatory collapse.
Methods: 10 healthy female pigs (Department of Experimental Medicine and Surgery, University of Copenhagen, Denmark) bred as a combination of the Danish Landrace (⅓) and Yorkshire (⅔), with a medium weight of 41±2 kg were investigated.
Mean arterial blood pressure (MAP) was obtained from the catheter in arcus aorta with the transducer (Pressure Monitoring Kit, Baxter, Deerfield, Ill., USA) positioned at the level of the heart. The left femoral artery was subsequently exposed and an ultrasound doppler probe attached for peripheral femoral artery flow measurements (CM-4000, Cardiomed, Norway). MAP, HR and peripheral flow were monitored and data continuously collected using a PowerLab system (Adinstruments, Australia). Cardiac Output (CO) was determined in triplicates by thermodilution, following an injection of 10 ml of cooled saline solution. Blood samples were withdrawn from catheters in aorta and the right atrium at baseline and at steady state when MAP had decreased maximally or by ˜50%. Calculated variables were: stroke volume of the heart (SV=CO/HR), pulmonary vascular resistance (PVR=(MPAP−PCWP)/CO), systemic vascular resistance (SVR=(MAP−MRAP)/CO), leg vascular conductance (LVC=LBF/(MAP−MRAP)), and arterial (aorta) and mixed venous (pulmonary artery) oxygen content (Hb*1.34*O2 saturation). In the calculation of LVC, MRAP was used as an estimate of mean femoral venous pressure (MFVP), as MRAP was found in a series of measurements to equal MFVP, as estimated in 10 supine pigs. As a potential estimate for myocardial oxygen demand the rate pressure product (RPP=MAP*HR) was also calculated.
Drug infusions: Each animal was administered the nucleotides ATP, UTP, ADP (Sigma, St. Louis, Mo., USA) and ADO (Item Development AB, Stocksund, Sweden), through the internal jugular vein in the right atrium, in random order following blinded allocation. The nucleotides and ADO were prepared by dissolving in saline so as to achieve the target concentration of ATP (40±0.5 μmol/min), ADP (43±8 μmol/min), UTP (up to 1,600 μmol/min), and ADO (73±7 μmol/min). The nucleotides were infused in increasing dosages at 2 min intervals aiming at reducing MAP by maximally ˜50%. Thereafter, that specific infusion rate was maintained for ˜3-5 min. After each intervention the animal rested for ˜30 min, allowing resting cardiovascular variables to be reestablished. Thereafter, a new cycle of nucleotide infusion was administered. In the present study we aimed to allow the drugs to reduce MAP by ˜50%, but without inducing a hemodynamic and circulatory collapse, to simulate a pronounced state of systemic vasodilation, as may be observed for instance in a shock condition.

[2] = tested on: coronary arteries in humans with coronary artery disease; experiment: FFR during continuous intracoronary infusion via guiding catheter (Example 2); format: in vivo; set-up: key: FFR = Pd/Pa (distal/proximal coronary pressure ratio); conditions: Example 5 summary; Ttest 0.0034 adenosine vs UTP
[3] = tested on: coronary arteries in humans with coronary artery disease; experiment: FFR during continuous intracoronary infusion via microcatheter (Example 3); format: in vivo; conditions: individual patients, 320 μg/min
leg blood flow = conditions: cited from earlier work; for relative vasoactive potency (rank order): only for blood flows around 3.5 Lmin^−1

In the case of `O=c1ccn([C@@H]2O[C@H](COP(=O)(O)OP(=O)(O)OP(=O)(O)O)C(O)[C@@H]2O)c(=O)[nH]1` (stereo partly shown) [UTP, Uridine 5-triphosphate], the “increase in CO (cardiac output)” value [1] was 72.5±15.2% and ~70%, the “increase in HR from baseline” value [1] was 51.1±9.0% and the “decrease in SV (stroke volume)” value [1] was “did not significantly change SV”. For the same compound, the “arrhythmias (missed beats, VT, SVT or AV nodal block)” value ([1]; intravenous systemic infusion) was “does not produce arrhythmias”, the “infusion rate giving the ~35% reduction in MAP” value ([1]; maximal MAP reduction obtainable with UTP) was 86.5 ± 18.2 µmol/min and the “decrease in SVR (systemic vascular resistance) from baseline” value ([1]; p<0.05) was 62.9±2.6%. For the same compound, the “increase in LVC (leg vascular conductance) from baseline” value (from here on “increase in LVC”) ([1]; p<0.05) was 150.0±17.1% and ~150%, the “increase in LBF (leg blood flow)” value ([1]; p<0.05, FIG. 6c) was 53.7±17.8% and ~50% and the “MAP lowered by, from baseline” value [1] was 35.0±3.2%. For the same compound, the “decrease in PVR (pulmonary vascular resistance) from baseline” value [1] was “did not significantly alter”, the “decrease in rate pressure product” value ([1]; tendency) was roughly 10% and the “FFR Mean” value [2] was 0.72. For the same compound, the FFR [3] was 0.90 (2×) and 0.89 and 0.72 and 0.77 and 0.86 and 0.56 and 0.69 and 0.84, the “blood flow increase, % of maximum in the leg during hard exercise” value (leg blood flow; local infusion) was 60% and the “relative vasoactive potency (rank order)” value (leg blood flow) was 100.

With `Nc1ncnc2c1ncn2[C@@H]1O[C@H](CO)[C@@H](O)[C@H]1O` [adenosine] the “increase in CO (cardiac output)” value [1] was 31.4±9.9%, the “increase in HR from baseline” value [1] was “did not increase” and the “decrease in SV (stroke volume)” value [1] was “did not significantly change SV”. For the same compound, the “decrease in LBF (leg blood flow) from baseline” value ([1]; p<0.05) was 19.4±10.7%, the “decrease in SVR (systemic vascular resistance) from baseline” value ([1]; p<0.05) was 59.0±3.0% and the “increase in LVC” value ([1]; p<0.05) was roughly 50%. The “MAP lowered by, from baseline” value [1] was 47.2±1.5%, the “increase in LVC” value ([1]; p<0.05, listed as ADO) was 56.4±12.9% and the “decrease in PVR (pulmonary vascular resistance) from baseline” value [1] was 34.3±2.6%. The “infusion rate at target MAP” value ([1]; target ~50% reduction in baseline MAP, right atrium infusion) was 72.7 ± 6.6 µmol/min, the “FFR Mean” value [2] was 0.77 and the FFR ([3]; listed as ADO) was 0.79 and 0.96 and 0.54 and 0.70 (2×) and 0.95 and 0.86 and 1.02 and 0.89. The “relative vasoactive potency (rank order)” value (leg blood flow) was 5.8.
